Measured values published in US20100190795A1, “BETULIN DERIVED COMPOUNDS USEFUL AS ANTIPROTOZOAL AGENTS” (Valtion Teknillinen tutkimuskeskus, priority 2006, published 2010).

System: Leishmania
Assay: Alamar Blue determination of activity against Leishmania (single concentration and GI50)
Format: cell-based, Leishmania donovani, L. tropica
Conditions: for activity against leishmaniasis: statement in words in the description; for inhibition at 50 µM: Leishmania, compound concentration 50 µM; for GI50: concentrations between 50 and 0.01 μM
Experimental: Leishmania donovani MHOM/SD/1962/1S-012D and L. tropica MHOM/IS/1990/LRC-L590 protozoa were used in the tests.
Promastigotes were grown in a broth containing Medium-199 (Sigma, St. Louis, Mo.) supplemented with 2 mM L-glutamine, 100 μM adenosine, 23 μM folio acid, antibiotics (100 IU penicillin G and 100 μg/ml streptomycin), 1×BME vitamin mixture, 25 mM 2-(N-morpholin)ethanesulfonic acid (MES), 4.2 mM NaHCO3 and heat treated fetal calf serum (FCS, 10% v/v), pH being adjusted to 6.8, Promastigotes were grown at 26° C.
Axenic amastigotes of L. donovani were grown according to the procedure presented by Debrabant et al., 2004, in the RPMI 1640 broth containing 20% v/v of fetal calf serum (FCS), at 37° C., pH 5.5, Axenic amastigotes of L. tropica were grown as described for L. donovani with the exception that only 10% v/v FCS was used, at 36° C. without CO2.
Each dilution with the desired concentration of the parasite was dispensed as three parallel samples (250 μl/well) to a 96 well microtiter plate having a flat bottom (NUNC, Denmark), followed by the addition of Alamar Blue reagent (25 μl/well, ENCO). The plates were read (λcm=544 nm; λex2=590 nm) after following incubation times (3, 9, 24, 48 and 72 h) using a fluorescence microtiter plate reader (Fluoroskan, Ascent Fla., Finland).
Activity of the compounds was tested both for L. donovani and L. tropica species. Promastigotes (2×10^6 cells/ml) or axenic amastigotes (5.0×10^5 cells/ml) were introduced as three parallel samples (125 μl/well) to 96 well microtiter plates having flat bottoms, the wells containing each compound diluted in the cultivation broth (125 with final concentration of DMSO of 1%), Initially, the concentration of the compounds was […]. Amphotericin B (1 μM) was included as positive control (Sigma, St. Louis, Mo.), Broth containing DMSO was used as negative control. The parasites were tested either with or without the compounds by incubating at 26° C. (promastigotes), at 36° C. (axenic amastogotes of L. tropica) or at 37° C. (axenic amastogotes of L. donovani). After 24 hours, the Alamar Blye reagent (25 μl/well) was added, the plates were still incubater for 24 hours, followed by fluorescence determination. GI50 assay was carried out using the same procedure, the concentrations of the compounds to be tested ranging, however, between 50 and 0.01 μM.
Testing of the compounds was carried out as described in example 32.

[1] = Table 4, 24 h, then Alamar Blue 24 h, fluorescence, species and stage not given
[2] = Table 5, tested as in example 32, species and stage not stated

Row | Molecule | Inhibition of Leishmania (%) [1] [%] | Inhibition of Leishmania (%) [2] [%] | other results
1 | 28-carboxymethoxy mentholester of betulin [betulin 28-carboxymethoxy mentholester] | 16.6 | – | –
2 | C=C(C)[C@@H]1CC[C@]2(CO)CC[C@]3(C)[C@H](CC[C@@H]4[C@@]5(C)CC=CC(C)(C)[C@@H]5CC[C@]43C)[C@@H]12 [2,3-didehydro-3-deoxybetulin, reference compound] | 13.2 | – | –
3 | CC(C)[C@@H]1CC[C@]2(C(=O)O)CC[C@]3(C)[C@H](CC[C@@H]4[C@@]5(C)CCC(=O)C(C)(C)[C@@H]5CC[C@]43C)[C@@H]12 [20,29-hydrobetulonic acid, 20,29-dihydrobetulonic acid] | 73.4 | – | –
4 | C=C(C)[C@@H]1CC[C@]2(COC(=O)c3ccccc3NC(C)=O)CC[C@]3(C)C(CCC4[C@@]5(C)CC[C@H](O)C(C)(C)C5CC[C@]43C)C12 (stereo partly shown) [28-N-acetylanthranilic acid ester of betulin] | 59.2 | – | activity against leishmaniasis: considerable activity
5 | C=C(C)C1CCC2(COC(C)=O)CCC3(C)C(CCC4C5(C)CCC(=O)C(C)(C)C5CCC43C)C12 (stereo not shown) [28-acetate of betulonic alcohol] | 40.6 | – | –
6 | C=C(C)C1CCC2(C(=O)NC(CC(=O)OC)C(=O)OC)CCC3(C)C(CCC4C5(C)CCC(=O)C(C)(C)C5CCC43C)C12 (stereo not shown) [28-aspartateamide dimethyl ester of betulonic acid] | 69.3 | – | activity against leishmaniasis: considerable activity
7 | C=C(C)C1CCC2(C(=O)OC)CCC3(C)C(CCC4C5(C)CCC(=O)C(C)(C)C5CCC43C)C12 (stereo not shown) [28-methylester of betulonic acid] | 40.1 | – | –
8 | C[C@@H]1[C@H](O)[C@@H](C)/C=C/C=C/C=C/C=C/C=C/C=C/C=C/[C@H](O[C@@H]2O[C@H](C)[C@@H](O)[C@H](N)[C@@H]2O)C[C@@H]2O[C@](O)(C[C@@H](O)C[C@@H](O)[C@H](O)CC[C@@H](O)C[C@@H](O)CC(=O)O[C@H]1C)C[C@H](O)[C@H]2C(=O)O [amphotericine B, Amphotericin B, reference compound] | – | – | Inhibition of Leishmania (%) (Table 4, positive control at 1 μM): 55.4%; Inhibition of Leishmania (%) (Table 5, positive control at 1 μM): 55.4%
9 | C=C(C)[C@@H]1CC[C@]2(/C=N/O)CC[C@]3(C)[C@H](CC[C@@H]4[C@@]5(C)CC/C(=N\O)C(C)(C)[C@@H]5CC[C@]43C)[C@@H]12 [betulin 3,28-dioxime] | 72.4 | – | –
10 | C=C(C)C1CCC2(C#N)CCC3(C)C(CCC4C5(C)CCC(=NOC(C)=O)C(C)(C)C5CCC43C)C12 (stereo not shown) [betulin 3-acetoxyoxime-28-nitrile] | 66.4 | – | activity against leishmaniasis: considerable activity
11 | C=C(C)[C@@H]1CC[C@]2(COC(=O)C3C(C=C(C)C)C3(C)C)CC[C@]3(C)[C@H](CC[C@@H]4[C@@]5(C)CC[C@H](O)C(C)(C)[C@@H]5CC[C@]43C)[C@@H]12 (stereo partly shown) [betulin 28-chrysanthemate, 28-chrysanthemate of betulin] | 13.4 | – | –
12 | C=C(C)[C@@H]1CC[C@]2(/C=N/O)CC[C@]3(C)[C@H](CC[C@@H]4[C@@]5(C)CC[C@H](O)C(C)(C)[C@@H]5CC[C@]43C)[C@@H]12 [betulin 28-oxime] | 66.8 | – | –
13 | C=C(C)[C@@H]1CC[C@]2(CO)CC[C@]3(C)[C@H](CC[C@@H]4[C@@]5(C)CC[C@H](O)C(C)(C)[C@@H]5CC[C@]43C)[C@@H]12 [betulin, lup-20(29)-ene-3β,28-diol] | – | – | inhibition at 50 µM [1]: 35%
14 | C=C(C)[C@@H]1CC[C@]2(C(=O)O)CC[C@]3(C)[C@H](CC[C@@H]4[C@@]5(C)CC[C@H](O)C(C)(C)[C@@H]5CC[C@]43C)[C@@H]12 [betulinic acid, reference compound] | – | – | inhibition at 50 µM [1]: 39.8%
15 | C=C(C)[C@@H]1CC[C@]2(C=O)CC[C@]3(C)[C@H](CC[C@@H]4[C@@]5(C)CC[C@H](O)C(C)(C)[C@@H]5CC[C@]43C)[C@@H]12 [betulinic aldehyde, reference compound] | – | – | inhibition at 50 µM [1]: 65%
16 | C=C(C)[C@@H]1CC[C@]2(C(=O)O)CC[C@]3(C)[C@H](CC[C@@H]4[C@@]5(C)CCC(=O)C(C)(C)[C@@H]5CC[C@]43C)[C@@H]12 [betulonic acid] | 97.6 | – | activity against leishmaniasis: considerable activity
17 | C=C(C)[C@@H]1CC[C@]2(CO)CC[C@]3(C)[C@H](CC[C@@H]4[C@@]5(C)CCC(=O)C(C)(C)[C@@H]5CC[C@]43C)[C@@H]12 [betulonic alcohol] | 44.0 | – | –

Row | Molecule | Inhibition of Leishmania (%) [1] [%] | Inhibition of Leishmania (%) [2] [%] | other results
18 | C=C(C)[C@@H]1CC[C@]2(C=O)CC[C@]3(C)[C@H](CC[C@@H]4[C@@]5(C)CCC(=O)C(C)(C)[C@@H]5CC[C@]43C)[C@@H]12 [betulonic aldehyde, reference compound] | 46.2 | – | –
19 | Dials-Alder adduct of 3β,28-diacetoxylupa-12,18-diene and p-chloro-4-phenylurazole | – | 27.3 | –
20 | Diels-Alder adduct of 3β,28-diacetoxylupa-12,18-diene and 1,3-dioxol-5-ylurazole | – | 52.2 | activity against leishmaniasis: considerable activity
21 | Diels-Alder adduct of 3β,28-diacetoxylupa-12,18-diene and 1-naphthylurazole | – | 57.7 | activity against leishmaniasis: considerable activity
22 | Diels-Alder adduct of 3β,28-diacetoxylupa-12,18-diene and 4-benzoylurazole | – | 24.7 | –
23 | Diels-Alder adduct of 3β,28-diacetoxylupa-12,18-diene and 4-methylurazole | – | 98.2 | GI50 (Table 5): 8.9 µM; activity against leishmaniasis: considerable activity
24 | Diels-Alder adduct of 3β,28-diacetoxylupa-12,18-diene and 4-phenylurazole | – | 36.2 | –
25 | Diels-Alder adduct of 3β,28-diacetoxylupa-12,18-diene and indan-5-yl urazole | – | 22.5 | –
26 | Diels-Alder adduct of 3β,28-diacetoxylupa-12,18-diene and m-chloro-4-phenylurazole | – | 29.7 | –
27 | Diels-Alder adduct of 3β,28-diacetoxylupa-12,18-diene and m-methoxy-4-phenylurazole | – | 43.5 | –
28 | Diels-Alder adduct of 3β,28-diacetoxylupa-12,18-diene and m-nitroxy-4-phenylurazole | – | 29.5 | –
29 | Diels-Alder adduct of 3β,28-diacetoxylupa-12,18-diene and p-acetoxy-4-phenylurazole | – | 44.7 | –
30 | Diels-Alder adduct of 3β,28-diacetoxylupa-12,18-diene and p-fluoro-4-phenylurazole | – | 47.8 | –
31 | Diels-Alder adduct of 3β,28-diacetoxylupa-12,18-diene and urazole | – | 87.6 | GI50 (Table 5): 25.5 µM; activity against leishmaniasis: considerable activity
32 | Diels-Alder adduct of lupa-12,18-diene and 4-methylurazole | – | 50.0 | –
33 | Diels-Alder adduct of lupa-12,18-diene and 4-phenylurazole | – | 47.5 | –
34 | betulin 28-acetic acid methyl ester [betulin 28-acetic acid methylester] | – | – | Inhibition of Leishmania (%) (Table 4, compound concentration, 24 h, then Alamar Blue 24 h, fluorescence, species and stage not given): 95.3%; activity against leishmaniasis: considerable activity
